Laboratory results published in patent US9974761B2, “Medications for deposition on biological surfaces” (The Procter & Gamble Company, priority 2014, dated 2018).

Experiments:
human TRPM8 = experiment: TRPM8 Protocol-FLIPR Assay (intracellular Ca2+); format: cell-based; settings: for TRPM8 Time Course Activity 50 sec % of WS5 / TRPM8 Time Course Activity 3 min % of WS5 / TRPM8 Time Course Activity 5 min % of WS5 / TRPM8 Time Course Activity 10 min % of WS5: vs 30 uM WS-5; for TRPM8 Time Course Activity 50 sec: fluorescence at 50 sec; for TRPM8 Time Course Activity 3 min: fluorescence at 3 min; for TRPM8 Time Course Activity 5 min: fluorescence at 5 min; for TRPM8 Time Course Activity 10 min: fluorescence at 10 min
[1] = Sensation reported by panelists; format: in vivo; settings: perceived sensation, in words

CC(C)[C@@H]1CC[C@@H](C)C[C@H]1C(=O)NCC(NC(=O)[C@@H](C)N)c1ccccc1 (single isomer, unassigned) [Compound 28 fraction 2]
TRPM8 Time Course Activity 50 sec % of WS5 (human TRPM8; dose 6.1 nM): 19.3%
TRPM8 Time Course Activity 3 min % of WS5 (human TRPM8; dose 6.1 nM): 46.0%
TRPM8 Time Course Activity 5 min % of WS5 (human TRPM8; dose 6.1 nM): 50.3%
TRPM8 Time Course Activity 10 min % of WS5 (human TRPM8; dose 6.1 nM): 50.6%
TRPM8 Time Course Activity 50 sec (human TRPM8; dose 6.1 nM): 1944.0
TRPM8 Time Course Activity 3 min (human TRPM8; dose 6.1 nM): 4350.0
TRPM8 Time Course Activity 5 min (human TRPM8; dose 6.1 nM): 4763.0
TRPM8 Time Course Activity 10 min (human TRPM8; dose 6.1 nM): 4844.0
TRPM8 Time Course Activity 50 sec % of WS5 (human TRPM8; dose 12.2 nM): 18.0%
TRPM8 Time Course Activity 3 min % of WS5 (human TRPM8; dose 12.2 nM): 57.6%
TRPM8 Time Course Activity 5 min % of WS5 (human TRPM8; dose 12.2 nM): 65.7%
TRPM8 Time Course Activity 10 min % of WS5 (human TRPM8; dose 12.2 nM): 71.1%
TRPM8 Time Course Activity 50 sec (human TRPM8; dose 12.2 nM): 1814.0
TRPM8 Time Course Activity 3 min (human TRPM8; dose 12.2 nM): 5446.0
TRPM8 Time Course Activity 5 min (human TRPM8; dose 12.2 nM): 6224.0
TRPM8 Time Course Activity 10 min (human TRPM8; dose 12.2 nM): 6809.0
TRPM8 Time Course Activity 50 sec % of WS5 (human TRPM8; dose 24.4 nM): 23.0%
TRPM8 Time Course Activity 3 min % of WS5 (human TRPM8; dose 24.4 nM): 68.2%
TRPM8 Time Course Activity 5 min % of WS5 (human TRPM8; dose 24.4 nM): 76.3%
TRPM8 Time Course Activity 10 min % of WS5 (human TRPM8; dose 24.4 nM): 82.0%
TRPM8 Time Course Activity 50 sec (human TRPM8; dose 24.4 nM): 2311.0
TRPM8 Time Course Activity 3 min (human TRPM8; dose 24.4 nM): 6441.0
TRPM8 Time Course Activity 5 min (human TRPM8; dose 24.4 nM): 7226.0
TRPM8 Time Course Activity 10 min (human TRPM8; dose 24.4 nM): 7848.0
TRPM8 Time Course Activity 50 sec % of WS5 (human TRPM8; dose 48.8 nM): 24.9%
TRPM8 Time Course Activity 3 min % of WS5 (human TRPM8; dose 48.8 nM): 81.7%
TRPM8 Time Course Activity 5 min % of WS5 (human TRPM8; dose 48.8 nM): 89.6%
TRPM8 Time Course Activity 10 min % of WS5 (human TRPM8; dose 48.8 nM): 97.0%
TRPM8 Time Course Activity 50 sec (human TRPM8; dose 48.8 nM): 2502.0
TRPM8 Time Course Activity 3 min (human TRPM8; dose 48.8 nM): 7721.0
TRPM8 Time Course Activity 5 min (human TRPM8; dose 48.8 nM): 8488.0
TRPM8 Time Course Activity 10 min (human TRPM8; dose 48.8 nM): 9289.0
TRPM8 Time Course Activity 50 sec % of WS5 (human TRPM8; dose 97.6 nM): 49.8%
TRPM8 Time Course Activity 3 min % of WS5 (human TRPM8; dose 97.6 nM): 106.9%
TRPM8 Time Course Activity 5 min % of WS5 (human TRPM8; dose 97.6 nM): 113.5%
TRPM8 Time Course Activity 10 min % of WS5 (human TRPM8; dose 97.6 nM): 118.8%
TRPM8 Time Course Activity 50 sec (human TRPM8; dose 97.6 nM): 5007.0
TRPM8 Time Course Activity 3 min (human TRPM8; dose 97.6 nM): 10101.0
TRPM8 Time Course Activity 5 min (human TRPM8; dose 97.6 nM): 10747.0
TRPM8 Time Course Activity 10 min (human TRPM8; dose 97.6 nM): 11375.0
TRPM8 Time Course Activity 50 sec % of WS5 (human TRPM8; dose 195 nM): 72.4%
TRPM8 Time Course Activity 3 min % of WS5 (human TRPM8; dose 195 nM): 121.5%
TRPM8 Time Course Activity 5 min % of WS5 (human TRPM8; dose 195 nM): 126.8%
TRPM8 Time Course Activity 10 min % of WS5 (human TRPM8; dose 195 nM): 129.8%
TRPM8 Time Course Activity 50 sec (human TRPM8; dose 195 nM): 7287.0
TRPM8 Time Course Activity 3 min (human TRPM8; dose 195 nM): 11477.0
TRPM8 Time Course Activity 5 min (human TRPM8; dose 195 nM): 12007.0
TRPM8 Time Course Activity 10 min (human TRPM8; dose 195 nM): 12427.0
TRPM8 Time Course Activity 50 sec % of WS5 (human TRPM8; dose 390 nM): 87.1%
TRPM8 Time Course Activity 3 min % of WS5 (human TRPM8; dose 390 nM): 126.5%
TRPM8 Time Course Activity 5 min % of WS5 (human TRPM8; dose 390 nM): 129.9%
TRPM8 Time Course Activity 10 min % of WS5 (human TRPM8; dose 390 nM): 136.0%
TRPM8 Time Course Activity 50 sec (human TRPM8; dose 390 nM): 8766.0
TRPM8 Time Course Activity 3 min (human TRPM8; dose 390 nM): 11955.0
TRPM8 Time Course Activity 5 min (human TRPM8; dose 390 nM): 12301.0
TRPM8 Time Course Activity 10 min (human TRPM8; dose 390 nM): 13026.0
TRPM8 Time Course Activity 50 sec % of WS5 (human TRPM8; dose 781 nM): 103.7%
TRPM8 Time Course Activity 3 min % of WS5 (human TRPM8; dose 781 nM): 136.4%
TRPM8 Time Course Activity 5 min % of WS5 (human TRPM8; dose 781 nM): 138.3%
TRPM8 Time Course Activity 10 min % of WS5 (human TRPM8; dose 781 nM): 147.4%
TRPM8 Time Course Activity 50 sec (human TRPM8; dose 781 nM): 10428.0
TRPM8 Time Course Activity 3 min (human TRPM8; dose 781 nM): 12887.0
TRPM8 Time Course Activity 5 min (human TRPM8; dose 781 nM): 13091.0
TRPM8 Time Course Activity 10 min (human TRPM8; dose 781 nM): 14116.0
TRPM8 Time Course Activity 50 sec % of WS5 (human TRPM8; dose 1.563 uM): 112.6%
TRPM8 Time Course Activity 3 min % of WS5 (human TRPM8; dose 1.563 uM): 134.0%
TRPM8 Time Course Activity 5 min % of WS5 (human TRPM8; dose 1.563 uM): 136.8%
TRPM8 Time Course Activity 10 min % of WS5 (human TRPM8; dose 1.563 uM): 145.1%
TRPM8 Time Course Activity 50 sec (human TRPM8; dose 1.563 uM): 11331.0
TRPM8 Time Course Activity 3 min (human TRPM8; dose 1.563 uM): 12663.0
TRPM8 Time Course Activity 5 min (human TRPM8; dose 1.563 uM): 12954.0
TRPM8 Time Course Activity 10 min (human TRPM8; dose 1.563 uM): 13892.0
TRPM8 Time Course Activity 50 sec % of WS5 (human TRPM8; dose 3.125 uM): 116.9%
TRPM8 Time Course Activity 3 min % of WS5 (human TRPM8; dose 3.125 uM): 134.4%
TRPM8 Time Course Activity 5 min % of WS5 (human TRPM8; dose 3.125 uM): 136.6%
TRPM8 Time Course Activity 10 min % of WS5 (human TRPM8; dose 3.125 uM): 145.1%
TRPM8 Time Course Activity 50 sec (human TRPM8; dose 3.125 uM): 11757.0
TRPM8 Time Course Activity 3 min (human TRPM8; dose 3.125 uM): 12699.0
TRPM8 Time Course Activity 5 min (human TRPM8; dose 3.125 uM): 12937.0
TRPM8 Time Course Activity 10 min (human TRPM8; dose 3.125 uM): 13890.0
TRPM8 Time Course Activity 50 sec % of WS5 (human TRPM8; dose 6.25 uM): 121.6%
TRPM8 Time Course Activity 3 min % of WS5 (human TRPM8; dose 6.25 uM): 133.8%
TRPM8 Time Course Activity 5 min % of WS5 (human TRPM8; dose 6.25 uM): 136.2%
TRPM8 Time Course Activity 10 min % of WS5 (human TRPM8; dose 6.25 uM): 144.0%
TRPM8 Time Course Activity 50 sec (human TRPM8; dose 6.25 uM): 12236.0
TRPM8 Time Course Activity 3 min (human TRPM8; dose 6.25 uM): 12644.0
TRPM8 Time Course Activity 5 min (human TRPM8; dose 6.25 uM): 12891.0
TRPM8 Time Course Activity 10 min (human TRPM8; dose 6.25 uM): 13793.0
TRPM8 Time Course Activity 50 sec % of WS5 (human TRPM8; dose 12.5 uM): 123.4%
TRPM8 Time Course Activity 3 min % of WS5 (human TRPM8; dose 12.5 uM): 132.3%
TRPM8 Time Course Activity 5 min % of WS5 (human TRPM8; dose 12.5 uM): 135.2%
TRPM8 Time Course Activity 10 min % of WS5 (human TRPM8; dose 12.5 uM): 143.6%
TRPM8 Time Course Activity 50 sec (human TRPM8; dose 12.5 uM): 12415.0
TRPM8 Time Course Activity 3 min (human TRPM8; dose 12.5 uM): 12501.0
TRPM8 Time Course Activity 5 min (human TRPM8; dose 12.5 uM): 12801.0
TRPM8 Time Course Activity 10 min (human TRPM8; dose 12.5 uM): 13755.0
TRPM8 Time Course Activity 50 sec % of WS5 (human TRPM8; dose 25 uM): 120.4%
TRPM8 Time Course Activity 3 min % of WS5 (human TRPM8; dose 25 uM): 126.9%
TRPM8 Time Course Activity 5 min % of WS5 (human TRPM8; dose 25 uM): 129.7%
TRPM8 Time Course Activity 10 min % of WS5 (human TRPM8; dose 25 uM): 137.2%
TRPM8 Time Course Activity 50 sec (human TRPM8; dose 25 uM): 12110.0
TRPM8 Time Course Activity 3 min (human TRPM8; dose 25 uM): 11993.0
TRPM8 Time Course Activity 5 min (human TRPM8; dose 25 uM): 12284.0
TRPM8 Time Course Activity 10 min (human TRPM8; dose 25 uM): 13140.0
TRPM8 Time Course Activity 50 sec % of WS5 (human TRPM8; dose 50 uM): 125.7%
TRPM8 Time Course Activity 3 min % of WS5 (human TRPM8; dose 50 uM): 130.7%
TRPM8 Time Course Activity 5 min % of WS5 (human TRPM8; dose 50 uM): 133.5%
TRPM8 Time Course Activity 10 min % of WS5 (human TRPM8; dose 50 uM): 137.6%
TRPM8 Time Course Activity 50 sec (human TRPM8; dose 50 uM): 12648.0
TRPM8 Time Course Activity 3 min (human TRPM8; dose 50 uM): 12352.0
TRPM8 Time Course Activity 5 min (human TRPM8; dose 50 uM): 12644.0
TRPM8 Time Course Activity 10 min (human TRPM8; dose 50 uM): 13179.0
TRPM8 Time Course Activity 50 sec % of WS5 (human TRPM8; dose 100 uM): 121.7%
TRPM8 Time Course Activity 3 min % of WS5 (human TRPM8; dose 100 uM): 125.2%
TRPM8 Time Course Activity 5 min % of WS5 (human TRPM8; dose 100 uM): 127.5%
TRPM8 Time Course Activity 10 min % of WS5 (human TRPM8; dose 100 uM): 128.3%
TRPM8 Time Course Activity 50 sec (human TRPM8; dose 100 uM): 12246.0
TRPM8 Time Course Activity 3 min (human TRPM8; dose 100 uM): 11826.0
TRPM8 Time Course Activity 5 min (human TRPM8; dose 100 uM): 12074.0
TRPM8 Time Course Activity 10 min (human TRPM8; dose 100 uM): 12287.0
sensation (cooling, warming, burning) [1]: did not provide a cooling response
